# What was measured:
# [1] = target: T1, CARM1 (Homo sapiens, UniProt Q86X55); test: Mechanism of action; type: biochemical; details: IC50 against CARM1 with increasing peptide substrate or SAM concentrations
# T1 sequence (Q86X55 1-608): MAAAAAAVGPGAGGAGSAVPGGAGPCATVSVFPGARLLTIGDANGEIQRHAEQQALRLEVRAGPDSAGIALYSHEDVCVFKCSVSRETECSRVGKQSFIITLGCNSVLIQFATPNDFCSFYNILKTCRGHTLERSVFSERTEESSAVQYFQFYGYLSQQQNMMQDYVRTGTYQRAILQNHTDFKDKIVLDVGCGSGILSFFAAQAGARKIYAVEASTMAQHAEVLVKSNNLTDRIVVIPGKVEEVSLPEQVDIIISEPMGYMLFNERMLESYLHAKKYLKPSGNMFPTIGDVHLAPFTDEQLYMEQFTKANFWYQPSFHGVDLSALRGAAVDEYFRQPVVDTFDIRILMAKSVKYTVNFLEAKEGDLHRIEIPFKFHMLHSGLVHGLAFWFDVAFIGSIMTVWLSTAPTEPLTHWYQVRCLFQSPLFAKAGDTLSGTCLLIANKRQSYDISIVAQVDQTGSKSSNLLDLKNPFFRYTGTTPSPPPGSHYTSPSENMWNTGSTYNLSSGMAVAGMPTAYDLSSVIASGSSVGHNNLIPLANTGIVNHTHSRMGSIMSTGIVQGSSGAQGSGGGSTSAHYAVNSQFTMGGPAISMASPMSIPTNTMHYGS
# [2] = system: all type I PRMTs; details: cited from earlier work
# [3] = system: type II and type III PRMTs as well as other methyltransferases; details: cited from earlier work
# [4] = system: other PRMTs; test: Activity against other PRMTs; type: biochemical; details: PRMTs other than CARM1, PRMT6 and PRMT8
# [5] = target: PRMT8 (Homo sapiens, UniProt Q9NR22); test: PRMT8 biochemical inhibition assay
# PRMT8, sequence (Q9NR22 whole entry, species assumed): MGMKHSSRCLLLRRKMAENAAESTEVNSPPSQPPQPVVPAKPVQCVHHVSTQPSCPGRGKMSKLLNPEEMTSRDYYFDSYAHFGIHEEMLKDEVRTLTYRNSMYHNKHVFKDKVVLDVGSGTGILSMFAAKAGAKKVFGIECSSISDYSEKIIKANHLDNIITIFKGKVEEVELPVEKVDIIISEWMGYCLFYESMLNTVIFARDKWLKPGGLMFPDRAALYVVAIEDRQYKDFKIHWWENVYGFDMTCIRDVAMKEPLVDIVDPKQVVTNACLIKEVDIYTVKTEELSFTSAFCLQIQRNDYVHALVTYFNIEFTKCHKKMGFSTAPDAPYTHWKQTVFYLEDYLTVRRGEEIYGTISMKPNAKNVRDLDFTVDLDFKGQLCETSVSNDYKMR
smiles,measurement,setting,value
CNCCN1CCC(NCc2cccc(Br)c2)CC1 [Compound 9],mechanism of action versus cofactor SAM and peptide substrate,[1],noncompetitive
CC(C)Oc1ccc(-c2c[nH]cc2CN(C)CCN)cc1 [MS023],activity against all type I PRMTs,[2],potent
same,activity against type II and type III PRMTs and other methyltransferases,[3],inactive
CNCCN1CC(OCc2cccc(OC(F)(F)F)c2)C1 [Compound 6],activity against other PRMTs,[4],inactive
same,IC50,[5],1200 nM
